From US10981932B2, “Macrocyclic indole derivatives” (Bayer Aktiengesellschaft, priority 2016, dated 2021)
Values joined by “and” are separate entries in the source; they are usually repeats but may differ in a detail not shown here. Equal values may be shown once. Where a name gives a salt, the structure may show the parent alone. Read-outs that look alike come from different tables or passages of the source.

Columns and labels:
MCL-1 = MCL-1 (Homo sapiens, UniProt Q07820); assay: Protein-protein interaction assay MCL-1/Noxa BH3 peptide (MCL-1 assay), TR-FRET; assay type: binding; details: MBP-MCL-1 / Noxa BH3-derived peptide, median
Summary of the method: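 TR-FRET, 665/622 nm emission ratio (excitation 330–350 nm), measured MCL-1/Noxa complex formation. 1 nM MBP-MCL-1, 50 mM Tris/HCl pH 7, 0.1% BGG, 2 mM DTT. Incubation 1 h at 22 °C, then overnight at 4 °C. IC50 by 4-parameter regression, normalized to DMSO (0%) and no-MCL-1 (100%) controls.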

SUDHL5 [1] = assay: Induction of caspase-3/7 activity (Caspase-Glo 3/7), SUDHL5; assay type: cell-based; details: caspase-3/7 induction, SUDHL5 cells, 3 h treatment, median
Summary of the method: (§1)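 DLBCL cells treated with compounds for 3 h at 37 °C, then caspase-3/7 activity read by Caspase-Glo 3/7 luminescence. Medium-only background subtracted; EC50 fitted with C0 fixed at 1 and top set to the reference compound's maximal induction.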

SUDHL10 [2] = assay: Induction of caspase-3/7 activity (Caspase-Glo 3/7), SUDHL10; assay type: cell-based; details: caspase-3/7 induction, SUDHL10 cells, 3 h treatment, median
Summary of the method: as §1

SUDHL5 [3] = assay: Anti-proliferative effect (CellTiter-Glo, 72 h), SUDHL5; assay type: cell-based; details: SUDHL5 cells, antiproliferation, 72 h incubation, median, read-out: Antiproli SUDHL5 [M] (median)
Summary of the method: (§2)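 Cells were treated with compounds for 72 h at 37 °C in a humidified incubator, and viability was measured by CellTiter-Glo luminescence. A parallel day 0 plate, read the same way, gave the time zero baseline.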

SUDHL10 [4] = assay: Anti-proliferative effect (CellTiter-Glo, 72 h), SUDHL10; assay type: cell-based; details: SUDHL10 cells, antiproliferation, 72 h incubation, median, read-out: Antiproli SUDHL10 [M] (median)
Summary of the method: as §2

A2780 = assay: Anti-proliferative effect (CellTiter-Glo, 72 h), A2780; assay type: cell-based; details: A2780 cells, median, read-out: IC50 antiproliferation assay A2780 [M] (median)
Summary of the method: as §2

MV-4-11 = assay: Anti-proliferative effect (CellTiter-Glo, 72 h), MV-4-11; assay type: cell-based; details: Homo sapiens, MV4-11, 72 h, MV-4-11 cells, median, read-out: IC50 antiproliferation assay MV-4-11 [M] (median)
Summary of the method: as §2

SUDHL5 [5] = assay: Induction of cytotoxicity (CellTiter-Glo, 5 h), SUDHL5
SUDHL10 [6] = assay: Induction of cytotoxicity (CellTiter-Glo, 5 h), SUDHL10
[7] = read-out: Cytotox SUDHL5 [M] (median), SUDHL5 cells, cytotoxicity induction, CellTiter-Glo, 5 h incubation, median
[8] = read-out: Cytotox SUDHL10 [M] (median), SUDHL10 cells, cytotoxicity induction, CellTiter-Glo, 5 h incubation, median
[9] = Homo sapiens, SU-DHL10, 5 h, read-out: Cytotox SUDHL10 [M] (median), SUDHL10 cells, cytotoxicity induction, CellTiter-Glo, 5 h incubation, median

Sequence of MCL-1 (Q07820 whole entry): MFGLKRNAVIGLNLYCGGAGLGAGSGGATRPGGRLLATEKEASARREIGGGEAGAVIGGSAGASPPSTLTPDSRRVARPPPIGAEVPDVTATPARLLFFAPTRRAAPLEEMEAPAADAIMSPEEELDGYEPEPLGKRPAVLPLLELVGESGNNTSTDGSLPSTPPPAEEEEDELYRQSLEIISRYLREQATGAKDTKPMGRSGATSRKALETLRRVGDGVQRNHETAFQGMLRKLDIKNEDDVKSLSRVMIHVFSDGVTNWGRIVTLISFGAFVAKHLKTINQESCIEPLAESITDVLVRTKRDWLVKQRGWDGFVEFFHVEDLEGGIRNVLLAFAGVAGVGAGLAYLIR

Structure (SMILES)	IC50 (MCL-1) [µM]	EC50 (SUDHL5 [1]) [µM]	EC50 (SUDHL10 [2]) [µM]	IC50 (SUDHL5 [3]) [M]	IC50 (SUDHL10 [4]) [M]	IC50 (A2780)	IC50 (MV-4-11) [M]	IC50 (SUDHL5 [5]; [7]) [M]	IC50 (SUDHL10 [6]; [8]) [M]	IC50 (A2780; Homo sapiens, A2780, 72 h) [M]	EC50 (SUDHL10 [2]; Homo sapiens, SU-DHL10, 3 h) [µM]	IC50 (SUDHL5 [3]; Homo sapiens, SU-DHL-5, 72 h) [M]	IC50 (SUDHL10 [4]; Homo sapiens, SU-DHL10, 72 h) [M]	IC50 (SUDHL10 [6]; [9]) [M]	EC50 (SUDHL5 [1]; Homo sapiens, SU-DHL-5, 3 h) [µM]	IC50 (SUDHL5 [5]; Homo sapiens, SU-DHL-5, 5 h, read-out: Cytotox SUDHL5 [M] (median), SUDHL5 cells, cytotoxicity induction, CellTiter-Glo, 5 h incubation, median)
O=C(O)c1c(CCCOc2cccc3ccccc23)c2cccc3c2n1CCCCOCc1nn2c(c1-3)COCC2 (single isomer, unassigned) [Example 252, 1-[3-(naphthalen-1-yloxy)propyl]-4,5,6,7,12,13-hexahydro-9H,15H-[1,4]oxazino[4″,3″:1′,5′]pyrazolo[4′,3′:9,10][1,6]oxazacycloundecino[8,7,6-hi]indole-2-carboxylic acid-N-ethylethanamine Salt]	0.0037	4.79	17.2	8.78e-06	6.31e-06	3.16e-05 M and > 3.3e-05 M	1.04e-05	5.17e-06	2.09e-05							
Cc1nn(C)c2c1-c1cccc3c(CCCOc4cccc5c4CCCC5)c(C(=O)O)n(c13)CCCCOC2 (single isomer, unassigned; enantiomer 1) [Example 007, 1,3-dimethyl-7-[3-(5,6,7,8-tetrahydronaphthalen-1-yloxy)propyl]-1,10,11,12,13,15-hexahydropyrazolo[4′,3′:9,10][1,6]oxazacycloundecino[8,7,6-hi]indole-8-carboxylic acid-N-ethylethanamine Salt (Enantiomer 1)]	0.000987	2.85	12	5.16e-06	3.1e-06	3.25e-05 M	8.03e-06	3.54e-06	6e-06	> 3.3e-05						
Cc1nn(C)c2c1-c1cccc3c(CCCOc4cccc5ccccc45)c(C(=O)O)n(c13)CCCOC2 (single isomer, unassigned; enantiomer 1) [Example 044, 9,11-dimethyl-1-[3-(naphthalen-1-yloxy)propyl]-5,6,8,9-tetrahydro-4H-pyrazolo[4′,3′:8,9][1,5]oxazecino[7,6,5-h]indole-2-carboxylic acid-N-ethylethanamine Salt (Enantiomer 1)]	0.00357	6.63					4.1e-06	6.01e-06		> 3.3e-05	25.3	7.61e-06	1.1e-05	2.34e-05		
Cc1nn(CCN2CCOCC2)c2c1-c1cccc3c(CCCOc4cccc5ccccc45)c(C(=O)O)n(c13)CCCCOC2 (single isomer, unassigned; enantiomer 1) [Example 096, 3-methyl-1-[2-(morpholin-4-yl)ethyl]-7-[3-(naphthalen-1-yloxy)propyl]-1,10,11,1213,15-hexahydropyrazolo[4′,3′:9,10][1,6]oxazacycloundecino[8,7,6-hi]indole-8-carboxylic acid-N-ethylethanamine Salt (Enantiomer 1)]	0.00136	1.34	3.97	2.32e-06			1.45e-06	1.09e-06	3.7e-06	2.79e-05			7.13e-06			
Cc1nn(CC(F)(F)F)c2c1-c1cccc3c(CCCOc4cccc5ccccc45)c(C(=O)O)n(c13)CCCCOC2 (single isomer, unassigned; enantiomer 1) [Example 110, 3-methyl-7-[3-(naphthalen-1-yloxy)propyl]-1-(2,2,2-trifluoroethyl)-1,10,11,12,13,15-hexahydropyrazolo[4′,3′:9,10][1,6]oxazacycloundecino[8,7,6-hi]indole-8-carboxylic acid-N-ethylethanamine Salt (Enantiomer 1)]	0.0124	8.06		1.24e-05	1.72e-05		1.33e-05	6.54e-06		> 3.3e-05	26			2.37e-05		
Cn1nc(CN2CCOCC2)c2c1COCC=CCn1c(C(=O)O)c(CCCOc3cccc4ccccc34)c3cccc-2c31 (single isomer, unassigned; enantiomer 1) [Example 133, (E/Z)-1-methyl-3-(morpholin-4-ylmethyl)-7-[3-(naphthalen-1-yloxy)propyl]-1,10,13,15-tetrahydropyrazolo[4′,3′:9,10][1,6]oxazacycloundecino[8,7,6-hi]indole-8-carboxylic acid-N-ethylethanamine Salt (Enantiomer 1)]	0.0186				4.25e-06		6.84e-06			1.51e-05	32.8	1.62e-05		2.95e-05	17.6	1.84e-05
Cn1nc(CN2CC(F)(F)C2)c2c1COCCCCn1c(C(=O)O)c(CCCOc3cccc4ccccc34)c3cccc-2c31 (single isomer, unassigned; enantiomer 1) [Example 181, 3-[(3,3-difluoroazetidin-1-yl)methyl]-1-methyl-7-[3-(naphthalen-1-yloxy)propyl]-1,10,11,12,13,15-hexahydropyrazolo[4′,3′:9,10][1,6]oxazacycloundecino[8,7,6-hi]indole-8-carboxylic acid-N-ethylethanamine Salt (Enantiomer 1)]	0.00777	5.11	16.1	6.23e-06			1.8e-05	6.68e-06		2.46e-05			8.23e-06	1.67e-05		
COCc1nn(C)c2c1-c1cccc3c(CCCOc4cccc5ccccc45)c(C(=O)O)n(c13)CCCCN(C)C2 (single isomer, unassigned; enantiomer 1) [Example 184, 3-(methoxymethyl)-1,14-dimethyl-7-[3-(naphthalen-1-yloxy)propyl]-10,11,12,13,14,15-hexahydro-1H-pyrazolo[3′,4′:8,9][1,6]diazacycloundecino[10,11,1-hi]indole-8-carboxylic acid-N-ethylethanamine Salt (Enantiomer 1)]	0.0016	0.803	2.9	1.34e-06	1.2e-06		1.52e-06	8.82e-07	2.94e-06	> 3.3e-05						
Cc1c2c(nn1C)CCCCCCn1c(C(=O)O)c(CCCOc3cccc4ccccc34)c3cccc-2c31 (single isomer, unassigned; enantiomer 1) [Example 191, 2,3-dimethyl-7-[3-(1-naphthyloxy)propyl]-10,11,12,13,14,15-hexahydro-2H-pyrazolo[4′,3′:4,5]azacycloundecino[3,2,1-hi]indole-8-carboxylic acid-N-ethylethanamine Salt (Enantiomer 1)]	0.00273	2.09	7.16	3.23e-06			2.58e-06	1.87e-06	5.01e-06	2.55e-05			4.64e-06			
CCCc1nn(C)c2c1-c1c(C)ccc3c(CCCOc4cccc5ccccc45)c(C(=O)O)n(c13)CCCN(C)C2 (single isomer, unassigned; enantiomer 1) [Example 196, 7,9,12-trimethyl-1-[3-(naphthalen-1-yloxy)propyl]-11-propyl-4,5,6,7,8,9-hexahydropyrazolo[3′,4′:7,8][1,5]diazecino[9,10,1-hi]indole-2-carboxylic acid-N-ethylethanamine Salt (Enantiomer 1)]	0.00161	1.39	2.85	1.45e-06	2.19e-06		4.83e-06	1.36e-06	2.92e-06	1.53e-05						
